Legend:
Type in all cases: organism-based
[1] = tested on: Phaseolus vulgaris; assay: Phytotoxicity against Phaseolus vulgaris (Kidney dry beans) assessed as shoot dry weight at 420 g a.i./ha applied pre-emergence measured at 42 days post-emergence (reference value: 133 +/- 8 g/m); details: in vivo, other, 1008 h
[2] = tested on: Phaseolus vulgaris; assay: Phytotoxicity against Phaseolus vulgaris (Kidney dry beans) assessed as visual crop injury at 420 to 840 g a.i./ha applied pre-emergence measured at 28 days post-emergence relative to control; details: in vivo, other, 672 h
[3] = tested on: Phaseolus vulgaris; assay: Phytotoxicity against Phaseolus vulgaris (Brown dry beans) assessed as shoot dry weight at 840 g a.i./ha applied pre-emergence measured at 42 days post-emergence (reference value: 123 +/- 7 g/m); details: in vivo, other, 1008 h
[4] = tested on: Phaseolus vulgaris; assay: Phytotoxicity against Phaseolus vulgaris (White dry beans) assessed as reduction in shoot dry weight at 840 g a.i./ha applied pre-emergence measured at 42 days post-emergence relative to control; set-up: scale not given: the % may be the effect or the level left; details: in vivo, other, 1008 h
[5] = tested on: Phaseolus vulgaris; assay: Phytotoxicity against Phaseolus vulgaris (Kidney dry beans) assessed as reduction in shoot dry weight at 840 g a.i./ha applied pre-emergence measured at 42 days post-emergence relative to control; set-up: scale not given: the % may be the effect or the level left; details: in vivo, other, 1008 h
[6] = tested on: Phaseolus vulgaris; assay: Phytotoxicity against Phaseolus vulgaris (Pinto dry beans) assessed as shoot dry weight at 420 g a.i./ha applied pre-emergence measured at 42 days post-emergence (reference value: 134 +/- 11 g/m); details: in vivo, other, 1008 h
[7] = tested on: Phaseolus vulgaris; assay: Phytotoxicity against Phaseolus vulgaris (White dry beans) assessed as plant height at 420 g a.i./ha applied pre-emergence measured at 28 days post-emergence (reference value: 31 +/- 2 cm); details: in vivo, other, 672 h
[8] = tested on: Phaseolus vulgaris; assay: Phytotoxicity against Phaseolus vulgaris (Black dry bean) assessed as reduction in shoot dry weight applied pre-emergence relative to control; set-up: scale not given: the % may be the effect or the level left; details: in vivo
[9] = tested on: Phaseolus vulgaris; assay: Phytotoxicity against Phaseolus vulgaris (brown dry beans) assessed as visual crop injury at 420 to 840 g a.i./ha applied pre-emergence measured at 28 days post-emergence relative to control; details: in vivo, other, 672 h
[10] = tested on: Phaseolus vulgaris; assay: Phytotoxicity against Phaseolus vulgaris (Black dry beans) assessed as yield at 420 g a.i./ha applied pre-emergence (reference value: 3.4 +/- 0.2 tons/ha); details: in vivo, other
[11] = tested on: Phaseolus vulgaris; assay: Phytotoxicity against Phaseolus vulgaris (White dry beans) assessed as visual crop injury at 420 to 840 g a.i./ha applied pre-emergence measured at 28 days post-emergence relative to control; details: in vivo, other, 672 h
[12] = tested on: Phaseolus vulgaris; assay: Phytotoxicity against Phaseolus vulgaris (Cranberry dry beans) assessed as reduction in shoot dry weight at 840 g a.i./ha applied pre-emergence measured at 42 days post-emergence relative to control; set-up: scale not given: the % may be the effect or the level left; details: in vivo, other, 1008 h
[13] = tested on: Phaseolus vulgaris; assay: Phytotoxicity against Phaseolus vulgaris (Kidney dry beans) assessed as yield at 420 g a.i./ha applied pre-emergence (reference value: 1.9 +/- 0.1 tons/ha); details: in vivo, other
[14] = tested on: Phaseolus vulgaris; assay: Phytotoxicity against Phaseolus vulgaris (Yellow eye dry beans) assessed as yield at 840 g a.i./ha applied pre-emergence (reference value: 2 +/- 0.1 tons/ha); details: in vivo, other
[15] = tested on: Phaseolus vulgaris; assay: Phytotoxicity against Phaseolus vulgaris (Otebo dry beans) assessed as visual crop injury at 420 to 840 g a.i./ha applied pre-emergence measured at 28 days post-emergence relative to control; details: in vivo, other, 672 h
[16] = tested on: Phaseolus vulgaris; assay: Phytotoxicity against Phaseolus vulgaris (Brown dry beans) assessed as shoot dry weight at 420 g a.i./ha applied pre-emergence measured at 42 days post-emergence (reference value: 123 +/- 7 g/m); details: in vivo, other, 1008 h
[17] = tested on: Phaseolus vulgaris; assay: Phytotoxicity against Phaseolus vulgaris (dry bean) assessed as visual crop injury at 840 g a.i./ha applied pre-emergence measured at 14 days post-emergence relative to control; details: in vivo, other, 336 h
[18] = tested on: Phaseolus vulgaris; assay: Phytotoxicity against Phaseolus vulgaris (Yellow eye dry beans) assessed as visual crop injury at 420 to 840 g a.i./ha applied pre-emergence measured at 28 days post-emergence relative to control; details: in vivo, other, 672 h
[19] = tested on: Phaseolus vulgaris; assay: Phytotoxicity against Phaseolus vulgaris (Otebo dry beans) assessed as shoot dry weight at 420 g a.i./ha applied pre-emergence measured at 42 days post-emergence (reference value: 156 +/- 10 g/m); details: in vivo, other, 1008 h
[20] = tested on: Phaseolus vulgaris; assay: Phytotoxicity against Phaseolus vulgaris (Pinto dry beans) assessed as visual crop injury at 420 to 840 g a.i./ha applied pre-emergence measured at 28 days post-emergence relative to control; details: in vivo, other, 672 h
[21] = tested on: Phaseolus vulgaris; assay: Phytotoxicity against Phaseolus vulgaris (Cranberry dry beans) assessed as plant height at 420 g a.i./ha applied pre-emergence measured at 28 days post-emergence (reference value: 33 +/- 1 cm); details: in vivo, other, 672 h
[22] = tested on: Phaseolus vulgaris; assay: Phytotoxicity against Phaseolus vulgaris (dry bean) assessed as visual crop injury at 840 g a.i./ha applied pre-emergence measured at 7 days post-emergence relative to control; details: in vivo, other, 168 h
[23] = tested on: Phaseolus vulgaris; assay: Phytotoxicity against Phaseolus vulgaris (White dry beans) assessed as shoot dry weight at 420 g a.i./ha applied pre-emergence measured at 42 days post-emergence (reference value: 135 +/- 11 g/m); details: in vivo, other, 1008 h
[24] = tested on: Phaseolus vulgaris; assay: Phytotoxicity against Phaseolus vulgaris (Brown dry beans) assessed as plant height at 420 g a.i./ha applied pre-emergence measured at 28 days post-emergence (reference value: 33 +/- 1 cm); details: in vivo, other, 672 h
[25] = tested on: Phaseolus vulgaris; assay: Phytotoxicity against Phaseolus vulgaris (Otebo dry beans) assessed as plant height at 420 g a.i./ha applied pre-emergence measured at 28 days post-emergence (reference value: 31 +/- 2 cm); details: in vivo, other, 672 h
[26] = tested on: Phaseolus vulgaris; assay: Phytotoxicity against Phaseolus vulgaris (Brown dry beans) assessed as yield at 840 g a.i./ha applied pre-emergence (reference value: 2.3 +/- 0.1 tons/ha); details: in vivo, other
[27] = tested on: Phaseolus vulgaris; assay: Phytotoxicity against Phaseolus vulgaris (Pinto dry beans) assessed as yield at 420 g a.i./ha applied pre-emergence (reference value: 3.1 +/- 0.1 tons/ha); details: in vivo, other
[28] = tested on: Phaseolus vulgaris; assay: Phytotoxicity against Phaseolus vulgaris (Pinto dry beans) assessed as plant height at 840 g a.i./ha applied pre-emergence measured at 28 days post-emergence (reference value: 32 +/- 1 cm); details: in vivo, other, 672 h
[29] = tested on: Phaseolus vulgaris; assay: Phytotoxicity against Phaseolus vulgaris (dry bean) assessed as visual crop injury at 420 g a.i./ha applied pre-emergence measured at 7 days post-emergence relative to control; details: in vivo, other, 168 h
[30] = tested on: Phaseolus vulgaris; assay: Phytotoxicity against Phaseolus vulgaris (Yellow eye dry beans) assessed as shoot dry weight at 420 g a.i./ha applied pre-emergence measured at 42 days post-emergence (reference value: 142 +/- 8 g/m); details: in vivo, other, 1008 h
[31] = tested on: Phaseolus vulgaris; assay: Phytotoxicity against Phaseolus vulgaris (Yellow eye dry beans) assessed as plant height at 420 g a.i./ha applied pre-emergence measured at 28 days post-emergence (reference value: 33 +/- 1 cm); details: in vivo, other, 672 h
[32] = tested on: Phaseolus vulgaris; assay: Phytotoxicity against Phaseolus vulgaris (Pinto dry beans) assessed as plant height at 420 g a.i./ha applied pre-emergence measured at 28 days post-emergence (reference value: 32 +/- 1 cm); details: in vivo, other, 672 h
[33] = tested on: Phaseolus vulgaris; assay: Phytotoxicity against Phaseolus vulgaris (Kidney dry beans) assessed as plant height at 420 g a.i./ha applied pre-emergence measured at 28 days post-emergence (reference value: 33 +/- 1 cm); details: in vivo, other, 672 h
[34] = tested on: Phaseolus vulgaris; assay: Phytotoxicity against Phaseolus vulgaris (Otebo dry beans) assessed as yield at 420 g a.i./ha applied pre-emergence (reference value: 3.1 +/- 0.1 tons/ha); details: in vivo, other

Question: What does the source list for `Cc1nn(-c2cc(NS(C)(=O)=O)c(Cl)cc2Cl)c(=O)n1C(F)F` [SULFENTRAZONE]?
Answer: Activity [1]: 128 g/m; Activity [2]: 15.9%; Activity [3]: 121 g/m; Activity [4]: 30%; Activity [5]: 35%; Activity [6]: 149 g/m; Activity [7]: 27 cm; Activity [8]: 16%; Activity [9]: 7%; Crop_yield [10]: 2.9 tons/ha; Activity [11]: 17.9%; Activity [12]: 40%; Crop_yield [13]: 1.9 tons/ha; Crop_yield [14]: 1.4 tons/ha; Activity [15]: 13.9%; Activity [16]: 134 g/m; Activity [17]: 30%; Activity [18]: 13.1%; Activity [19]: 157 g/m; Activity [20]: 9.2%; Activity [21]: 28 cm; Activity [22]: 26%; Activity [23]: 130 g/m; Activity [24]: 31 cm; Activity [25]: 28 cm; Crop_yield [26]: 2.1 tons/ha; Crop_yield [27]: 3.4 tons/ha; Activity [28]: 26 cm; Activity [29]: 9%; Activity [30]: 134 g/m; Activity [31]: 31 cm; Activity [32]: 30 cm; Activity [33]: 29 cm; Crop_yield [34]: 3 tons/ha

From ChEMBL document CHEMBL3045522, “Responses of dry beans (Phaseolus vulgaris L.) to sulfentrazone” (Crop Prot, 2007)
